According to patent publication US20250320203A1, “4-(3H-PYRAZOLO[4,3-F]QUINOLIN-7-YL)-N-(2-(DIMETHYLAMINO)ETHYL)BENZAMIDE- OR HYDROXAMIC ACID COMPOUNDS, COMPOSITIONS, AND METHODS OF USE” (Purdue Research Foundation, priority 2022, published 2025):

What was measured:
[1] = biological target: T1, haspin (Homo sapiens, UniProt Q8TF76); assay: ADP Glo Kinase Assay, haspin, 50 nM inhibitor; format: biochemical; conditions: 50 nM inhibitor conc.; means of triplicates; read-out: Percent Inhibition (%) Haspin
T1 sequence (Q8TF76 1-798): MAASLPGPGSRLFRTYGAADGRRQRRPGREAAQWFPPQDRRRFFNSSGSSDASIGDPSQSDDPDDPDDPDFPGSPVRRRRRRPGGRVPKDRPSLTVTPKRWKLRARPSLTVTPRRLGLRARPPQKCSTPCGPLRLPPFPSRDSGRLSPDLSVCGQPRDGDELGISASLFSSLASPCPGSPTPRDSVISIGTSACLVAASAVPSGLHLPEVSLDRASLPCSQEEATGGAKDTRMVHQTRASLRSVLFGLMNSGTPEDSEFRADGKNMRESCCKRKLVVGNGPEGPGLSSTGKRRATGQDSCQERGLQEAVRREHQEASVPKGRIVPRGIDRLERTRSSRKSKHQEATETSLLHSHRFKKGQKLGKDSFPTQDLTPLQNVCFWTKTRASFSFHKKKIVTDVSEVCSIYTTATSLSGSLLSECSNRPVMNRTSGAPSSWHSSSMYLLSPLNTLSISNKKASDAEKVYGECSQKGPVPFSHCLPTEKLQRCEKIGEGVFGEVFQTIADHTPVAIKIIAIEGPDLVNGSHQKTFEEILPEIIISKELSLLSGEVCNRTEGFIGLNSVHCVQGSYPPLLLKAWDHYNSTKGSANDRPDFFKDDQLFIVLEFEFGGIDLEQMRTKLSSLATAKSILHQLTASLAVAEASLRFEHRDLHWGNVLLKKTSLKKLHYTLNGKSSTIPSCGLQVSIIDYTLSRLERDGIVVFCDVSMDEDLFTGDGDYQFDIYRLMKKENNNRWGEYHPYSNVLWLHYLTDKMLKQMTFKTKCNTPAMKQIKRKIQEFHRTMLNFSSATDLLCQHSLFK
Experimental: (§1) With the amide kinase inhibitor library established, kinase inhibition and AML cell line (Molm-14, which harbors FLT3-ITD) growth inhibition were analyzed (Table 1). More specifically, Haspin and FLT3 inhibition were evaluated in-house via ADP Glo Kinase Assay (Promega, Madison, WI). […] Values reported are means of triplicates.
(§2) Briefly, the ADP-Glo Kinase Assay Kit was used to determine inhibition of haspin. Kinase Buffer (SignalChem Cat #K01-09; 25 mM MOPS, pH 7.2, 12.5 mM β-glycerol-phosphate, 25 mM MgCl2, 2 mM EDTA) was supplemented with dithiothreitol (DTT) (0.2 mM) and bovine serum albumin (BSA) (40 μg/mL) immediately prior to use. Reaction volumes of 5 μL containing 9 ng/μL kinase, 10 μM ATP, 50 nM inhibitor, and the appropriate peptide substrate (20 μM) were incubated for 3 hours, and then quenched with an equal volume (5 μL) of GLO reagent. After 40 minutes, 10 μL DET reagent was added and incubated for 1 hour before visualization on a Cytation™ 5 Cell Imaging Multi-Mode Reader (BioTek).

[2] = biological target: T2, FLT3 (Homo sapiens, UniProt P36888); assay: ADP Glo Kinase Assay, FLT3, 50 nM inhibitor; format: biochemical; conditions: 50 nM inhibitor conc.; means of triplicates; read-out: Percent Inhibition (%) FLT3
T2 sequence (P36888 27-993): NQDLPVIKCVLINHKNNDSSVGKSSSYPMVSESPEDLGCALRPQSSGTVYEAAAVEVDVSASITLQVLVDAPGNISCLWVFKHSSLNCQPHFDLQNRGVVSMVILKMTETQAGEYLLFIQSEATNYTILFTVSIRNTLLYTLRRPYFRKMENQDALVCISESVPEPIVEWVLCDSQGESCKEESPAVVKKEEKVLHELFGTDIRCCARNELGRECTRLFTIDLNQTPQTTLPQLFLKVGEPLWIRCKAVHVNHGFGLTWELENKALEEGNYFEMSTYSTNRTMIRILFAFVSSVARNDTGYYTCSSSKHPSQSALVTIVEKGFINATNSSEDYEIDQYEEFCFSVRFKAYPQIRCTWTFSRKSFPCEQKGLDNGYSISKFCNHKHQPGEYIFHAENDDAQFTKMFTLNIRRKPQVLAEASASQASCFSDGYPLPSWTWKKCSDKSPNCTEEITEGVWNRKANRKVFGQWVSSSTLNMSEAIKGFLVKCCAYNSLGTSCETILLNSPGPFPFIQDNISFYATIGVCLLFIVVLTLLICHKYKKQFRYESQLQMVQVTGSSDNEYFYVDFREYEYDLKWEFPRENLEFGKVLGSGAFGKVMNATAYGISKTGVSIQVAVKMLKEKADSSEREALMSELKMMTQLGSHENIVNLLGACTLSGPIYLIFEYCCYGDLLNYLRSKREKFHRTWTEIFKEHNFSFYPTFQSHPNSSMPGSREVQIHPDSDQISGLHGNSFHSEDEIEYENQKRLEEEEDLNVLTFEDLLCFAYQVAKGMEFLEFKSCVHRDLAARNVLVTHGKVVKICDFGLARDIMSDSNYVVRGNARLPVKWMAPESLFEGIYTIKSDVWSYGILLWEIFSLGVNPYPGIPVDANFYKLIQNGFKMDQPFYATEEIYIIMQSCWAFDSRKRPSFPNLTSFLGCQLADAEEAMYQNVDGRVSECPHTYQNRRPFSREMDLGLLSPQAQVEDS
Experimental: as §1, §2

[3] = system: Molm-14 cells (FLT3-ITD); assay: AML cell line growth inhibition (CellTiter-Blue), 50 nM; format: cell-based; conditions: Homo sapiens, 50 nM inhibitor conc., means of triplicates, read-out: Percent Inhibition (%) Molm-14 growth
Experimental: as §1
More specifically, cells were cultured to confluence in RPMI medium supplemented with 10% fetal bovine serum and 1× Penicillin-Streptomycin (Gibco™). Cells were plated at 5,000 cells/well in 96 well plates. After 24-hour incubation at 37° C. in a 5% CO2 incubator, compounds diluted in the same media were added to the indicated final concentration and allowed to incubate at 37° C. in a 5% CO2 incubator for 72 hours. Viability was determined using CellTiter-Blue® Cell Viability Assay (Promega, Madison, WI) with absorbance readings at 570 nm performed on a Cytation™ 5 Cell Imaging Multi-Mode Reader (BioTek) 3 hours after addition. Appropriate vehicle and cell-free controls were included. GI50 readings were confirmed by two scientists on two separate days.

[4] = system: histone H3 (Thr3) phosphorylation by haspin; assay: Western blot, histone H3 (Thr3) phosphorylation by haspin in Molm-14 cells; format: cell-based, human; conditions: 24 hours, HSK205 5, 20 or 100 nM, gilteritinib 100 nM
Experimental: Whether Compound HSK205 does indeed inhibit haspin in AML cells was then evaluated, and immunoblotting was performed to confirm inhibition of histone H3 (Thr3)phosphorylation by haspin (FIG. 13A). […] The samples were subsequently analyzed for the phosphorylation of histone H3 (Thr3).
Acute myeloid leukemia cells (Molm-14) were incubated with various concentrations of compound as specified. Cells were collected and lysed, and protein concentrations were quantified relative to BSA standards. After protein denaturation, proteins were separated via SDS-PAGE electrophoresis and transferred to NC membranes. After blocking, overnight incubation with specific primary antibodies, and room temperature incubation for 2 hours with peroxidase-conjugated secondary antibodies, peroxidase activity was detected with SuperSignal West Pico reagents (Thermo Scientific) using a CCD camera LAS-4000 (Fujifilm). Bands were normalized using housekeeping gene, Actin. Values reported represent the means of triplicates and error bars represent SD. All specific antibodies were purchased from Cell Signaling.

inhibition at 0.05 µM [1]: 11%
inhibition at 0.05 µM [2]: 93%
Compound: CCc1nc(C(N)=O)c(Nc2ccc(N3CCC(N4CCN(C)CC4)CC3)c(OC)c2)nc1NC1CCOCC1 [gilteritinib, reference compound]
inhibition at 0.05 µM [3]: 87%
phosphorylation of histone H3 (Thr3) [4]: did not display haspin inhibition
